Reference: patent US7985774B2, “Use of 3,5-seco-4-nor-cholestane derivatives for obtaining a cytoprotective drug” (Trophos, priority 2006, dated 2011)

Tests used:
[1] = tested on: rabbit ventricular cardiomyocytes; assay: Contractile dysfunction test induced by doxorubicin (sarcomer shortening); format: cell-based; conditions: after 4 hrs of exposure
Description: A stock solution of 3,5-seco-4-nor-cholestan-5-one oxime-3-ol at a concentration of 10 mM in 100% DMSO was used.
The final concentration in DMSO was the same for all the experimental points, independently of the molecular concentrations used.
3,5-seco-4-nor-cholestan-5-one oxime-3-ol was tested at concentrations of 0.1 and 0.3 μM, diluted in a Tyrode solution (composition in mmol/L: NaCl 135, KCl 5.4, NaH2PO4 0.33, CaCl2 1.2, MgCl2 1.0, Hepes 10; pH adjusted to 7.4 with NaOH).
Isolated ventricular cells are obtained from hearts of male New Zealand rabbits as described in A. d'Anglemont de Tassigny et al., Fund. Clin. Pharmacol, 18: 531-38, 2004. Briefly, the rabbits (2.0-2.5 kg) are anaesthetized with a pentobarbital solution (50 mg/kg) and they then receive heparin (200 IU/kg). The hearts are excised and immediately perfused, for 10-15 minutes by means of a Langendorff apparatus without recirculation with an oxygenated tyrode (calcium-free) isotonic solution (95%, 2-5% CO2) (in mM: NaCl 135, KCl 5.4, Na2PO4 0.33, MgCl2 1.0, HEPES 10, pH adjusted to 7.4 with 1N NaOH at 37° C., 280-300 mOsmol/kgH2O). […]
The myocytes were selected for the study according to the following criterion: a rod-like aspect with very apparent striations and no intracellular vacuola, no spontaneous contraction when they are stimulated with 1 mM Ca^2+, and with constant rest length and contraction amplitude. The length of the sarcomers was measured by means of a video image analysis program and the data were acquired at a rate of 240 samples/s. […]
(§1) Apoptosis is induced in isolated cardiomyocytes by 3-8 hour exposure to 1 μM of doxorubicin added into an isotonic solution containing (in mM) NaCl 110, KCl 5.4, Na2PO4 0.33, NaHCO3 25, glucose 5, MgCl2 0.8, CaCl2 1, pH adjusted to 7.4. […] The contractility of cardiomyocytes was measured every hour during the 8 hrs of exposure to doxorubicin. […]

caspase-3 = assay: Caspase-3 activity (apoptosis) after doxorubicin; format: cell-based, rabbit; conditions: 8 hrs after exposure, control 19±9
Description: Isolated ventricular cells are obtained from hearts of male New Zealand rabbits as described in A. d'Anglemont de Tassigny et al., Fund. Clin. Pharmacol, 18: 531-38, 2004. Briefly, the rabbits (2.0-2.5 kg) are anaesthetized with a pentobarbital solution (50 mg/kg) and they then receive heparin (200 IU/kg). The hearts are excised and immediately perfused, for 10-15 minutes by means of a Langendorff apparatus without recirculation with an oxygenated tyrode (calcium-free) isotonic solution (95%, 2-5% CO2) (in mM: NaCl 135, KCl 5.4, Na2PO4 0.33, MgCl2 1.0, HEPES 10, pH adjusted to 7.4 with 1N NaOH at 37° C., 280-300 mOsmol/kgH2O). Next, all the hearts are perfused for 3 minutes in the “recirculation” mode with the same calcium-free Tyrode solution (coronary flow rate, 10-15 mL/min) added with 1 mg/mL of type II collagenase and 0.28 mg/mL of XIV type protease. Finally, all the hearts are perfused in a mode without any recirculation with the same solution of Tyrode supplemented with 0.3 mM of CaCl2 for 10 min. The left ventricle is removed and cut into small pieces; cell dissociation is achieved by mild mechanical stirring. Extracellular calcium is added by increments every 15 minutes, in order to reach a physiological concentration of 1.0 mM. […]
Caspase-3 activity is used as a quantitative method for measuring apoptosis. […] The fluorogenic substrate for measuring caspase-3 activity (DEVD) is marked with the fluorochrome, 7-amino-4-methyl coumarine (AMC), which produces […] fluorescence detectable in UV light at 360/460 nm for 210 min. […]
as §1

CC(C)CCC[C@@H](C)[C@H]1CC[C@H]2[C@@H]3CC/C(=N\O)[C@](C)(CCCO)[C@H]3CC[C@]12C [3,5-seco-4-nor-cholestan-5-one oxime-3-ol]
shortening of the peak relatively to the base line ([1]; doxorubicin 1 μM + compound 0.1 μM (15 min pre-treatment)): 18.9±5.4% | shortening of the peak relatively to the base line ([1]; doxorubicin 1 μM + compound 0.3 μM (15 min pre-treatment)): −8.1±9.6% | caspase-3 activity (caspase-3; doxorubicin 1 μM + compound 0.1 μM): 27 ± 20 fmol/min | caspase-3 activity (caspase-3; doxorubicin 1 μM + compound 0.3 μM): 15 ± 7 fmol/min
